Test results taken from patent publication US9448226B2, “Method of toxicological evaluation, method of toxicological screening and associated system” (Universite Technologie De Compiegne—UTC, priority 2010, dated 2016).

Legend:
HEPG2/C3A cells = assay: Metabolic response of C3A bioartificial liver in bioreactor to xenobiotic (1H NMR, PLS regression); assay type: cell-based, human; set-up: key: +: sign of the variation of its concentration (in brackets) when the amount of xenobiotic in the experiment increases; −: sign of the variation of its concentration (in brackets) when the amount of xenobiotic in the experiment increases
Excerpt: (§1) In the preferred embodiment described, ^1H NMR spectroscopy (proton NMR, which makes it possible to detect hydrogen atoms) was used to carry out a series of tests. These tests involved two cell lines and three potentially toxic substances, with the two lines being optionally in coculture. These cells are in one case HEPG2/C3A cells, or simply C3A, human hepatocyte cells, and in the other case Madin-Darby canine kidney (MDCK) cells. […] In particular, mention may be made of the pancreas, the heart, the testicles, parts of the brain, etc.
(§2) The medium samples are, for example, prepared using 350 μl of medium, mixed with 200 μl of 0.9 g/l saline solution composed of 90% water (H2O) and 10% heavy water (D2O), for the purpose of calibration. The 550 μl of solution is then transferred to an NMR analysis tube.
(§3) NMR is acquired at a frequency of 700 MHz by using a proton probe. A ^1D NMR spectrum is recorded using presaturation of the resonance of the water according to the following sequence: Trd-P90-t1-P90-tm-P90-Taq. Trd represents a delay of 2 seconds during which the resonance of the water is selectively irradiated, P90 is a 90° pulse of radio frequency and t1 corresponds to a delay of 3 μs. The resonance of the water is irradiated a second time during the mixing time (tm=100 ms) and an acquisition time of 1.95 s. For each sample, 128 interferograms are accumulated in order to increase the signal-to-noise ratio. These interferograms are multiplied by an exponential function corresponding to a 0.3 Hz enlarging of the line. Before obtaining a Fourier transform, the width of the interferogram is doubled by adding null points at the end of the interferogram, in order not to degrade the resolution of the spectrum. The scale in the horizontal dimension corresponds to the ^1H chemical shifts. It extends over a window of 10 ppm around the resonance of water. The scale in the vertical dimension corresponds to resonance intensity which is proportional to the number of protons present for a chemical group of each molecule of the sample. The spectra are then phased and a linear correction of the baseline is carried out, before calibration on the signal of the […] anomer of glucose at 5.23 ppm. The area between 4.67 ppm and 5 ppm around the residual signal of water is suppressed for better visibility, and the spectra are exported as a multidimensional data set.
(§4) The statistical analysis consists first of an unsupervised principal components analysis in order to locate aberrant points in the multidimensional data set. The principal components analysis makes it possible to compress the 40,000 redundant NMR present in the data set in a new orthonormal reference, with each axis representing a principal component of the variance of the data set, which is thus multidimensional. A so-called supervised multivariate statistical analysis is then carried out in order to discriminate culture conditions or groups of doses and to identify the metabolic signatures specific to the toxicological effects. This supervised analysis is principally carried out using partial least squares regression, through partial least squares discriminant analysis (PLS-DA), without however being limited to it. A PLS regression, just like a linear regression, makes it possible to identify the components of the data set (explanatory variables, X) that are quantitatively correlated with the non-explanatory variable (Y), whether the culture conditions, the cell type of the bioartificial organ, the type of treatment administered or the treatment dose. Artificial neural network structures can also be programmed to carry out this multivariate analysis.
(§5) Third, the metabolic responses of the various organs to various exposures to NH3 were studied. Three amounts of NH3 were administered (0 mM, 5 mM and 10 mM) to each type of bioartificial organ.

C3A cells = assay: Metabolic response of C3A cell culture in Petri dishes to APAP (1H NMR, PLS regression); assay type: cell-based, human; set-up: key: +: sign of the variation of its concentration (in brackets) when the amount of xenobiotic in the experiment increases; −: sign of the variation of its concentration (in brackets) when the amount of xenobiotic in the experiment increases; details: amount of xenobiotic increases
Method: Fourth, the specific metabolic responses of bioartificial livers exposed to various toxins were characterized (Table 4). Several toxic substances (NH3 ([…]); DMSO (0%, 1%, 2%, 4%); APAP (0.1 mM)) were administered to bioartificial livers comprised of C3A cells. In the case of treatment with APAP, the response of the bioartificial liver was compared with that of liver cells in culture in Petri dishes. […] The result is four PLS models specific to each treatment type: NH3 on C3A bioartificial liver, DMSO on C3A bioartificial liver, APAP on C3A bioartificial liver and, finally, APAP on C3A cell culture in Petri dishes. […] This table presents for each metabolite the sign of the variation of its concentration (in brackets) when the amount of xenobiotic in the experiment increases.

C3A/MDCK coculture = details: NH3 0 mM, 5 mM and 10 mM
Excerpt: as §1, §2, §3, §4, §5

[1] = tested on: Madin-Darby canine kidney (MDCK) cells; details: Bioartificial kidney (MDCK cells); NH3 0 mM, 5 mM and 10 mM
Excerpt: as §1, §2, §3, §4, §5

[2] = C3A bioartificial liver, amount of xenobiotic increases (Table 4)
[3] = Bioartificial liver (C3A cells), NH3 0 mM, 5 mM and 10 mM

Structure (SMILES): C[S+](C)[O-] [DMSO, dimethyl sulfoxide]
- Variation of Alpha-keto-isovalerate concentration (HEPG2/C3A cells; [2]): isovalerate (−)
- Variation of Alpha-keto-methylvalerate concentration (HEPG2/C3A cells; [2]): methylvalerate (−)
- Variation of Glucose concentration (HEPG2/C3A cells; [2]): Glucose (+)
- Variation of Lactate concentration (HEPG2/C3A cells; [2]): Lactate (−)
- Variation of Phenylalanine concentration (HEPG2/C3A cells; [2]): Phenylalanine (+)
- Variation of Tyrosine concentration (HEPG2/C3A cells; [2]): Tyrosine (+)

Structure (SMILES): CC(=O)Nc1ccc(O)cc1 [APAP, N-acetyl-para-aminophenol]
- Variation of Acetate concentration (HEPG2/C3A cells; [2]): Acetate (+)
- Variation of Isoleucine concentration (HEPG2/C3A cells; [2]): Isoleucine (−)
- Variation of Pyruvate/oxaloacetate concentration (HEPG2/C3A cells; [2]): oxaloacetate (−)
- Variation of Succinate concentration (HEPG2/C3A cells; [2]): Succinate (−)
- Variation of Tyrosine concentration (HEPG2/C3A cells; [2]): Tyrosine (+)
- Variation of Unknown metabolite concentration (HEPG2/C3A cells; [2]): Unknown (−)
- Variation of Arginine concentration (C3A cells): Arginine (−)
- Variation of Ethanol concentration (C3A cells): Ethanol (−)
- Variation of Glutamate concentration (C3A cells): Glutamate (−)
- Variation of Isoleucine concentration (C3A cells): Isoleucine (−)
- Variation of Leucine concentration (C3A cells): Leucine (−)
- Variation of Lysine concentration (C3A cells): Lysine (−)
- Variation of Phenylalanine concentration (C3A cells): Phenylalanine (−)

Structure (SMILES): N [NH3, ammonia]
- Variation of Alanine concentration (HEPG2/C3A cells; [3]): +
- Variation of Alpha-keto-isovalerate concentration (HEPG2/C3A cells; [3]): −
- Variation of Alpha-keto-methylvalerate concentration (HEPG2/C3A cells; [3]): −
- Variation of Isoleucine concentration (HEPG2/C3A cells; [3]): +
- Variation of Leucine concentration (HEPG2/C3A cells; [3]): +
- Variation of Succinate concentration (HEPG2/C3A cells; [3]): +
- Variation of Valine concentration (HEPG2/C3A cells; [3]): +
- Variation of Alanine concentration (HEPG2/C3A cells; [2]): Alanine (+)
- Variation of Alpha-keto-isovalerate concentration (HEPG2/C3A cells; [2]): isovalerate (−)
- Variation of Alpha-keto-methylvalerate concentration (HEPG2/C3A cells; [2]): methylvalerate (−)
- Variation of Isoleucine concentration (HEPG2/C3A cells; [2]): Isoleucine (+)
- Variation of Leucine concentration (HEPG2/C3A cells; [2]): Leucine (+)
- Variation of Succinate concentration (HEPG2/C3A cells; [2]): Succinate (+)
- Variation of Valine concentration (HEPG2/C3A cells; [2]): Valine (+)
- Variation of Alpha-hydroxyisobutyrate concentration (C3A/MDCK coculture): +
- Variation of Glutamate concentration (C3A/MDCK coculture): +
- Variation of Glutamine concentration (C3A/MDCK coculture): +
- Variation of Lysine concentration (C3A/MDCK coculture): +
- Variation of Ornithine concentration (C3A/MDCK coculture): −
- Variation of Succinate concentration (C3A/MDCK coculture): +
- Variation of Valine concentration (C3A/MDCK coculture): +
- Variation of Glutamine concentration [1]: −
- Variation of Lysine concentration [1]: −
- Variation of Oxaloacetate concentration [1]: −
- Variation of Pyroglutamate concentration [1]: +
- Variation of Pyruvate concentration [1]: −
- Variation of Unknown metabolite concentration [1]: −
